Experimental findings from PubChem BioAssay (NCI) are described below.

Each structure is given as a SMILES string. Where “and” joins values, the source holds several entries; their conditions need not be identical. Equal values may be shown once.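 Five compound concentrations were applied to cells in 96-well plates for 48 hours; endpoints were derived by simple linear interpolation of the resulting dose-response curve. Here, GI50 denotes the concentration required for 50% inhibition of growth. TGI marks complete inhibition of growth.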

This assay deals with MDA-MB-468 breast. Kind of assay: NCI-60 cell line screen, 48 h.

Regarding `CCOC(=O)/C(=C/CC/C(C)=C/CC/C(C)=C/CCc1ccoc1)CC(=O)N1CCCCC1`, the GI50 is 2.11 µM and the TGI was 7.26 µM.
For `O=C(NC1CCN(Cc2ccccc2)CC1)c1cc(-c2cccnc2)nc2ccc(Cl)cc12`, in that order: 4.48 µM and 57 µM.
For `Cc1cc(F)c(C(=O)Nc2cccc(-c3nncn3C(C)C)n2)cc1-n1cnc(C2CC2)c1`, in that order: 7.76 µM and 83.3 µM.
On to `Cc1cccc2c3c(sc12)C(c1ccc(F)cc1)C(C#N)=C(/N=C/c1ccc(Cl)cc1)O3` (centres undefined), for which the GI50 is 0.383 µM and the TGI is 12.6 µM.
As for `COc1ccc(C(=O)/C=C/c2sc(Cl)nc2Cl)cc1`, the GI50 is 1.38 µM and the TGI was found to be 3.51 µM.
For `CC(=O)N[C@H](C)[C@@H](O)[C@@H](C)[C@@H]1OC(=O)/C=C/C=C(C)\C=C\[C@]2(C)C[C@@H](NS(C)(=O)=O)C=C[C@@H]2/C=C(C)/C=C/[C@H]1C`, the GI50 is 0.00245 µM and 0.00435 µM; the TGI is 2.12 µM and 7.39 µM.
For the compound `Cc1cccc2c(C3=C(c4cn(C)c5ccccc45)C(=O)NC3=O)cn(C)c12`, the GI50 was 13.9 µM and the TGI was over 25 µM.
On the same counts, the results for `C1=N[C@]23C(=N[C@H](N=C2NCc2ccco2)[C@]24N=CNC2=N[C@H]3N=C4NCc2ccco2)N1` are 26.6 µM and over 100 µM.
On the same counts, the results for `NC(N)=NN=c1c(=O)c2ccccc2c1=O` are 16.4 µM and 30.7 µM.
Take `O=C(COc1ccc(/C=C2\Oc3ccc4ccccc4c3C2=O)cc1)c1ccc([N+](=O)[O-])cc1`: the GI50 is 1.07 µM and the TGI is 3.05 µM.
On the same counts, the results for `CNC(=O)c1cc(Oc2ccc3nc(NC(=O)Nc4ccc(CN5CCOCC5)c(C(F)(F)F)c4)sc3c2)ccn1` are 1.45 µM and 4.95 µM.
For `C=CC(=O)N[C@@H]1CN(c2nc(Nc3cn(C)nc3OC)c3ncn(C)c3n2)C[C@H]1F`, in that order: 0.0256 µM and 0.265 µM.
As for `C[C@@H](Nc1nc(N[C@H](C)C(F)(F)F)nc(-c2cccc(Cl)n2)n1)C(F)(F)F`, the GI50 is 41.9 µM and the TGI is over 100 µM.
On the same counts, the results for `COc1ccccc1-n1cnc(N)c1C(=O)c1cc(OC)c(OC)c(OC)c1` are 1.85 µM and 6.57 µM.
For `CC/C=C\C[C@H]1C/C=C2/C(=O)C=C[C@H]2C/C=C\CCCC(=O)O1`, in that order: 1.56 µM and 7.95 µM.
On the same counts, the results for `O=CC(OC(=O)c1ccccc1)C(OC(=O)c1ccccc1)C(COC(c1ccccc1)(c1ccccc1)c1ccccc1)OC(=O)c1ccccc1` (centres undefined) are 11.8 µM and 26.9 µM.
Turning to `Oc1ccc(NC(=S)Nc2ccccc2)cc1`, the GI50 is over 100 µM and the TGI was over 100 µM.
For `CN(C)c1ccc(C(=S)c2ccc(N(C)C)cc2)cc1`, the GI50 is 2.05 µM and the TGI amounted to 8.21 µM.
For `O=C(Nc1ccc(OS(=O)(=O)c2ccc(F)cc2)cc1)C12CC3CC(CC(C3)C1)C2`, in that order: 1.33 µM and over 100 µM.
With `C[C@@H]1CC[C@H]2[C@@H](C)C(O)O[C@@H]3O[C@]4(C)CC[C@@H]1[C@]32OO4` (some centres undefined), the GI50 is 3.58 µM and the TGI came out at 33.2 µM.
On the same counts, the results for `Clc1ccc(-c2cc(-c3ccccc3)nc(N3CCN(CCCNc4ccnc5cc(Cl)ccc45)CC3)n2)cc1` are 0.352 µM and 1.61 µM.
For `C[C@@H](O)[C@@H](C)Oc1nc(Nc2ccc(S(=N)(=O)C3CC3)cc2)ncc1C(F)(F)F` (some centres undefined), the GI50 was 0.023 µM and the TGI was 0.0615 µM.
On the same counts, the results for `Nc1nc(N)c2c(n1)NC(c1sc(Cl)nc1Cl)CC(c1ccccc1)=N2` (centres undefined) are 2.12 µM and 8.48 µM.
On the same counts, the results for `COc1ccc(-c2nn(-c3cccc(Cl)c3)cc2/C=C2\NC(=S)N(c3ccc(Cl)cc3)C2=O)cc1` are 3.03 µM and 6.89 µM.
For `O=C(NNc1nc2cc(F)cc(F)c2n2cccc12)c1ccncn1`, in that order: over 30 µM and over 30 µM.
For `COc1ccccc1C1C2=C(COC2=O)Oc2cc3c(cc21)OCO3` (centres undefined), the GI50 was 5.08 µM and the TGI was over 100 µM.
On the same counts, the results for `Cc1nnc(C[C@@H]2C=C(c3ccc(Cl)cc3)c3ccccc3-n3c(C)nnc32)o1` are 0.745 µM and 22.8 µM.
For `CN1CCN(CCCOc2cccc3nc(Nc4cc(Cl)cc(Cl)c4)ccc23)CC1`, in that order: 1.69 µM and 3.22 µM.
`COc1cc2c(Oc3ccc(NC(=O)C4(C(=O)Nc5ccc(F)cc5)CC4)cc3F)ccnc2cc1OCCCN1CCOCC1`: the GI50 was 0.92 µM and 1.05 µM; the TGI is 2.29 µM and 3.16 µM.
With `Cc1c2cnccc2c(C)c2c1c1cc(O)ccc1n2C(C)C`, the GI50 is 2.12 µM and the TGI is 4.74 µM.
For `O=c1cc(-c2ccc(Cl)cc2)[nH]c2ccccc12`, in that order: 18.6 µM and over 100 µM.
On the same counts, the results for `CCN(C(=O)N1CCN(c2cc3c(cc2F)c(=O)c(C(=O)O)cn3C2CC2)CC1)c1nc(-c2ccccc2)cs1` are 2.52 µM and 8.82 µM.
